Reference: ChEMBL document CHEMBL3877242, “Synthesis of novel 25-hydroxyprotopanaxadiol derivatives by methylation and methoxycarbonylation using dimethyl carbonate as a environment-friendly reagent and their anti-tumor evaluation” (Bioorg Med Chem Lett, 2016)

Assays:
[1] = Cytotoxicity against human HeLa cells assessed as reduction in cell viability after 48 hrs by MTT assay; format: functional, cell-based
[2] = (§1) Cytotoxicity against human DU145 cells assessed as reduction in cell viability after 48 hrs by MTT assay; format: functional, cell-based; conditions: DU-145, 48 h
DU-145 [3] = experiment: as §1; format: functional, cell-based
[4] = Cytotoxicity against human IOSE-144 cells assessed as reduction in cell viability after 48 hrs by MTT assay; format: toxicity, cell-based
[5] = Cytotoxicity against human HeLa cells assessed as cell growth inhibition at 30 uM after 48 hrs by MTT assay; format: functional; conditions: read-out: GI
[6] = Cytotoxicity against human DU145 cells assessed as viable cells at 30 uM after 48 hrs by MTT assay; format: functional; conditions: DU-145, 48 h, read-out: GI
DU-145 [7] = experiment: Potency index, ratio of 5-FU IC50 to compound IC50 for human DU145 cells; format: functional

## CO[C@H]1CC[C@]2(C)[C@H]3C[C@@H](O)[C@@H]4[C@@H]([C@@](C)(CCCC(C)(C)O)OC)CC[C@@]4(C)[C@]3(C)CC[C@H]2C1(C)C
[1]
  IC50: 6.7 µM
[2]
  IC50: 5.6 µM
DU-145 [3]
  growth inhibition (GI): Dose-dependent effect
[4]
  IC50 at 48 h: > 100 µM
[5]
  inhibition of growth at 30 µM: 32.5%
[6]
  inhibition of growth at 30 µM: 32.5%

## O=c1[nH]cc(F)c(=O)[nH]1 [FLUOROURACIL]
[1]
  IC50: 28.2 µM
[2]
  IC50: 26.1 µM
[4]
  IC50 at 48 h: 36.1 µM

## COC(=O)O[C@H]1CC[C@]2(C)[C@H]3C[C@@H](O)[C@@H]4[C@@H]([C@](C)(O)CCCC(C)(C)OC(=O)OC)CC[C@@]4(C)[C@]3(C)CC[C@H]2C1(C)C
[1]
  IC50: 34.6 µM
[2]
  IC50: 29.2 µM
DU-145 [3]
  growth inhibition (GI): Dose-dependent effect
[4]
  IC50 at 48 h: > 100 µM

## CO[C@](C)(CCC=C(C)C)[C@H]1CC[C@]2(C)[C@@H]1[C@H](O)C[C@@H]1[C@@]3(C)CC[C@H](O)C(C)(C)[C@@H]3CC[C@]12C
[1]
  IC50: 1.1 µM
[2]
  IC50: 2.6 µM
DU-145 [3]
  growth inhibition (GI): Dose-dependent effect
[4]
  IC50 at 48 h: > 100 µM
DU-145 [7]
  Ratio IC50: 20 - 22
[5]
  inhibition of growth at 30 µM: 20.6%
[6]
  inhibition of growth at 30 µM: 20.6%

## COC(=O)O[C@H]1CC[C@]2(C)[C@H]3C[C@@H](O)[C@@H]4[C@@H]([C@@](C)(CCCC(C)(C)O)OC)CC[C@@]4(C)[C@]3(C)CC[C@H]2C1(C)C
[1]
  IC50: 7.1 µM
[2]
  IC50: 3.9 µM
DU-145 [3]
  growth inhibition (GI): Dose-dependent effect
[4]
  IC50 at 48 h: > 100 µM
[5]
  inhibition of growth at 30 µM: 18.6%
[6]
  inhibition of growth at 30 µM: 18.6%

## COC(C)(C)CC/C=C(\C)[C@H]1CC[C@]2(C)[C@@H]1[C@H](O)C[C@@H]1[C@@]3(C)CC[C@H](O)C(C)(C)[C@@H]3CC[C@]12C
[1]
  IC50: 1.3 µM
[2]
  IC50: 3.2 µM
DU-145 [3]
  growth inhibition (GI): Dose-dependent effect
[4]
  IC50 at 48 h: > 100 µM
[5]
  inhibition of growth at 30 µM: 20.4%
[6]
  inhibition of growth at 30 µM: 20.4%

## COC(=O)O[C@H]1CC[C@]2(C)[C@H]3C[C@@H](O)[C@@H]4[C@@H](/C(C)=C/CCC(C)(C)O)CC[C@@]4(C)[C@]3(C)CC[C@H]2C1(C)C
[1]
  IC50: 15.9 µM
[2]
  IC50: 10.9 µM
DU-145 [3]
  growth inhibition (GI): Dose-dependent effect
[4]
  IC50 at 48 h: > 100 µM
[5]
  inhibition of growth at 30 µM: 19.7%
[6]
  inhibition of growth at 30 µM: 19.7%

## COC(=O)O[C@H]1CC[C@]2(C)[C@H]3C[C@@H](O)[C@@H]4[C@@H]([C@@](C)(CCCC(C)(C)OC(=O)OC)OC)CC[C@@]4(C)[C@]3(C)CC[C@H]2C1(C)C
[1]
  IC50: 38.2 µM
[2]
  IC50: 32.6 µM
DU-145 [3]
  growth inhibition (GI): Dose-dependent effect
[4]
  IC50 at 48 h: > 100 µM

## COC(=O)O[C@H]1CC[C@]2(C)[C@H]3C[C@@H](O)[C@@H]4[C@@H]([C@@](C)(CCC=C(C)C)OC)CC[C@@]4(C)[C@]3(C)CC[C@H]2C1(C)C
[1]
  IC50: 30.2 µM
[2]
  IC50: 41.1 µM
DU-145 [3]
  growth inhibition (GI): Dose-dependent effect
[4]
  IC50 at 48 h: > 100 µM

## COC(=O)O[C@H]1CC[C@]2(C)[C@H]3C[C@@H](O)[C@@H]4[C@@H]([C@](C)(O)CCC=C(C)C)CC[C@@]4(C)[C@]3(C)CC[C@H]2C1(C)C
[1]
  IC50: 10.4 µM
[2]
  IC50: 1.2 µM
DU-145 [3]
  growth inhibition (GI): Dose-dependent effect
[4]
  IC50 at 48 h: > 100 µM
DU-145 [7]
  Ratio IC50: 20 - 22
[5]
  inhibition of growth at 30 µM: 38.4%
[6]
  inhibition of growth at 30 µM: 38.4%

## CC(C)(O)CCC[C@@](C)(O)[C@H]1CC[C@]2(C)[C@@H]1[C@H](O)C[C@@H]1[C@@]3(C)CC[C@H](O)C(C)(C)[C@@H]3CC[C@]12C
[1]
  IC50: 46.4 µM
[2]
  IC50: 57.9 µM
[4]
  IC50 at 48 h: > 100 µM

## COC(=O)O[C@H]1CC[C@]2(C)[C@H]3C[C@@H](O)[C@@H]4[C@@H]([C@](C)(O)CCCC(C)(C)O)CC[C@@]4(C)[C@]3(C)CC[C@H]2C1(C)C
[1]
  IC50: 59.9 µM
[2]
  IC50: 87.1 µM
DU-145 [3]
  growth inhibition (GI): Dose-dependent effect
[4]
  IC50 at 48 h: > 100 µM

## COC(C)(C)CCC[C@@](C)(O)[C@H]1CC[C@]2(C)[C@@H]1[C@H](O)C[C@@H]1[C@@]3(C)CC[C@H](O)C(C)(C)[C@@H]3CC[C@]12C
[1]
  IC50: 22.5 µM
[2]
  IC50: 5.4 µM
[4]
  IC50 at 48 h: > 100 µM

## COC(=O)O[C@H]1CC[C@]2(C)[C@H]3C[C@@H](OC(=O)OC)[C@@H]4[C@@H](/C(C)=C/CCC(C)(C)OC(=O)OC)CC[C@@]4(C)[C@]3(C)CC[C@H]2C1(C)C
[1]
  IC50: > 100 µM
[2]
  IC50: 80.3 µM
DU-145 [3]
  growth inhibition (GI): Dose-dependent effect
[4]
  IC50 at 48 h: > 100 µM

## COC(=O)OC(C)(C)CCC[C@@](C)(O)[C@H]1CC[C@]2(C)[C@@H]1[C@H](O)C[C@@H]1[C@@]3(C)CC[C@H](O)C(C)(C)[C@@H]3CC[C@]12C
[1]
  IC50: 26.9 µM
[2]
  IC50: 27.2 µM
DU-145 [3]
  growth inhibition (GI): Dose-dependent effect
[4]
  IC50 at 48 h: > 100 µM

## CO[C@H]1CC[C@]2(C)[C@H]3C[C@@H](OC)[C@@H]4[C@@H](/C(C)=C/CCC(C)(C)O)CC[C@@]4(C)[C@]3(C)CC[C@H]2C1(C)C
[1]
  IC50: 1.2 µM
[2]
  IC50: 12.1 µM
DU-145 [3]
  growth inhibition (GI): Dose-dependent effect
[4]
  IC50 at 48 h: > 100 µM

## CO[C@H]1CC[C@]2(C)[C@H]3C[C@@H](OC)[C@@H]4[C@@H]([C@@](C)(CCCC(C)(C)OC)OC)CC[C@@]4(C)[C@]3(C)CC[C@H]2C1(C)C
[1]
  IC50: 21.8 µM
[2]
  IC50: 18.7 µM
DU-145 [3]
  growth inhibition (GI): Dose-dependent effect
[4]
  IC50 at 48 h: > 100 µM
